pIC50: −log10 of the molar value.
Legend:
[1] = Toxicity against SCID/nude mouse xenografted with human MDA-MB-436 cells harboring BRCA mutant assessed as body weight loss at 0.15 mg/kg, po bid for 12 days co-administered with 35 mg/kg, po TMZ; type: organism-based; conditions: in vivo, 288 h, time 12 day
[2] = Toxicity against SCID/nude mouse xenografted with human SK-ES-1 cells harboring EWSF1 translocation assessed as body weight loss at 0.15 mg/kg, po bid for 12 days co-administered with 35 mg/kg, po TMZ; type: organism-based; conditions: in vivo, 288 h, time 12 day
[3] = Toxicity against SCID/nude mouse xenografted with human MDA-MB-436 cells harboring BRCA mutant assessed as body weight loss at 0.15 mg/kg, po bid for 12 days co-administered with lower dose of TMZ; type: organism-based; conditions: in vivo, 288 h, time 12 day
[4] = Toxicity against SCID/nude mouse xenografted with human MDA-MB-436 cells harboring BRCA mutant assessed as hypothermia at 0.15 mg/kg, po bid for 12 days co-administered with 35 mg/kg, po TMZ; type: organism-based; conditions: in vivo, 288 h, time 12 day
[5] = Toxicity in SCID/nude mouse xenografted with human MDA-MB-436 cells harboring BRCA mutant assessed as body weight loss at 0.15 mg/kg, po bid; type: organism-based; conditions: in vivo
[6] = Toxicity against SCID/nude mouse xenografted with human SK-ES-1 cells harboring EWSF1 translocation assessed as hypothermia at 0.15 mg/kg, po bid for 12 days co-administered with 35 mg/kg, po TMZ; type: organism-based; conditions: in vivo, 288 h, time 12 day
[7] = Toxicity against SCID/nude mouse xenografted with human SK-ES-1 cells harboring EWSF1 translocation assessed as body weight loss at 0.15 mg/kg, po bid for 12 days co-administered with lower dose of TMZ; type: organism-based; conditions: in vivo, 288 h, time 12 day
[8] = Toxicity against SCID/nude mouse xenografted with human CAPAN-1 cells harboring BRCA mutant assessed as body weight loss at 0.15 mg/kg, po bid for 12 days co-administered with lower dose of TMZ; type: organism-based; conditions: in vivo, 288 h, time 12 day
MDA-MB-436 [9] = experiment: Anticancer activity against human MDA-MB-436 cells harboring BRCA mutant xenografted in SCID/nude mouse assessed as tumor growth regression at 0.15 mg/kg, po bid and measured up to 5 weeks post-drug administration; type: functional; conditions: MDA-MB-436, po, 840 h, time weeks <=5
HEK293 [10] = experiment: Cytotoxicity against HEK293 cells at 1000 nM relative to control; type: cell-based; conditions: human, hek293, 1 µM
[11] = Toxicity against SCID/nude mouse xenografted with human CAPAN-1 cells harboring BRCA mutant assessed as hypothermia at 0.15 mg/kg, po bid for 12 days co-administered with 35 mg/kg, po TMZ; type: organism-based; conditions: in vivo, 288 h, time 12 day
MCF7 = experiment: Cytotoxicity against human MCF7 cells harboring wild type BRCA at 1000 nM relative to control; type: cell-based; conditions: mcf7, 1 µM
[12] = Toxicity against SCID/nude mouse xenografted with human CAPAN-1 cells harboring BRCA mutant assessed as body weight loss at 0.15 mg/kg, po bid for 12 days co-administered with 35 mg/kg, po TMZ; type: organism-based; conditions: in vivo, 288 h, time 12 day
[13] = biological target: T1, Poly [ADP-ribose] polymerase 1 (Homo sapiens, UniProt P09874); experiment: Inhibition of PARP1 in human MDA-MB-436 cells assessed as inhibition of PARylation at 10 nM incubated for 1 hr by chemiluminescence assay; type: cell-based
MDA-MB-436 [14] = experiment: Potentiation of anticancer activity against human MDA-MB-436 cells harboring BRCA mutant xenografted in SCID/nude mouse assessed as tumor growth inhibition at 3 mg/kg, po bid for 12 days co-administered with TMZ measured up to 9 weeks post-drug administration; type: functional; conditions: MDA-MB-436, po, 288 h, time 12 day
SK-ES1 = experiment: Potentiation of anticancer activity against human SK-ES-1 cells harboring EWSF1 translocation xenografted in SCID/nude mouse assessed as tumor growth inhibition at 3 mg/kg, po bid for 12 days co-administered with TMZ measured up to 9 weeks post drug administration; type: functional; conditions: 288 h, time 12 day
CAPAN-1 = experiment: Potentiation of anticancer activity against human CAPAN-1 cells harboring BRCA mutant xenografted in SCID/nude mouse assessed as tumor growth inhibition at 3 mg/kg, po bid for 12 days co-administered with TMZ measured up to 9 weeks post-drug administration; type: functional; conditions: CAPAN-1, po, 288 h, time 12 day
MDA-MB-436 [15] = experiment: Cytotoxicity against human MDA-MB-436 cells assessed as inhibition of cell viability incubated for 14 days with three intermittent intervals by CellTiterGlo luminescence assay; conditions: MDA-MB-436, 336 h
[16] = Oral bioavailability in BALB/c mouse at 10 mg/kg measured up to 24 hrs by LC-MS/MS analysis; type: ADME, organism-based; conditions: in vivo
[17] = AUClast in BALB/c mouse at 1 mg/kg, iv measured up to 24 hrs by LC-MS/MS analysis; type: ADME, organism-based; set-up: route intravenous, dose 1 mg/kg, time <=24; conditions: in vivo
[18] = Cmax in BALB/c mouse at 1 mg/kg, iv measured up to 24 hrs by LC-MS/MS analysis; type: ADME, organism-based; set-up: route intravenous, dose 1 mg/kg, time <=24; conditions: in vivo
[19] = biological target: Poly [ADP-ribose] polymerase 2 (Homo sapiens, UniProt Q9UGN5); experiment: Inhibition of N-terminal GST-tagged human PARP2 (2 to 583 residues) expressed in baculovirus infected Sf9 cells using histone mixture (H2A and H2B) and biotinylated NAD+ as substrate in presence of activated DNA incubated for 60 mins by chemiluminescence assay
[20] = Tmax in BALB/c mouse at 10 mg/kg, po measured up to 24 hrs by LC-MS/MS analysis; type: ADME, organism-based; conditions: in vivo
[21] = Clearance in BALB/c mouse at 1 mg/kg, iv measured up to 24 hrs by LC-MS/MS analysis; type: ADME, organism-based; conditions: in vivo
[22] = biological target: T1, Poly [ADP-ribose] polymerase 1; experiment: Inhibition of N-terminal GST-tagged human full length PARP1 (2 to 1041 residues) expressed in baculovirus infected Sf9 cells using histone mixture (H2A and H2B) and biotinylated NAD+ as substrate in presence of activated DNA incubated for 60 mins by chemiluminescence assay
[23] = Tmax in BALB/c mouse at 1 mg/kg, iv measured up to 24 hrs by LC-MS/MS analysis; type: ADME, organism-based; conditions: in vivo
MDA-MB-436 [24] = experiment: Cytotoxicity against human MDA-MB-436 cells assessed as inhibition of cell viability incubated for 4 days by CellTiterGlo luminescence assay; conditions: MDA-MB-436, 96 h
[25] = Volume of distribution at steady state in BALB/c mouse at 1 mg/kg, iv measured up to 24 hrs by LC-MS/MS analysis; type: ADME, organism-based; conditions: in vivo, read-out: Vdss
[26] = AUClast in BALB/c mouse at 10 mg/kg, po measured up to 24 hrs by LC-MS/MS analysis; type: ADME, organism-based; set-up: route oral, dose 10 mg/kg, time <=24; conditions: in vivo
MDA-MB-436 [27] = experiment: Anticancer activity against human MDA-MB-436 cells harboring BRCA mutant xenografted in SCID/nude mouse assessed as tumor growth regression at 1.5 mg/kg, po bid and measured up to 5 weeks post-drug administration; type: functional; conditions: MDA-MB-436, po, 840 h, time weeks <=5
[28] = Cmax in BALB/c mouse at 10 mg/kg, po measured up to 24 hrs by LC-MS/MS analysis; type: ADME, organism-based; set-up: route oral, dose 10 mg/kg, time <=24; conditions: in vivo
[29] = Half life in BALB/c mouse at 1 mg/kg, iv measured up to 24 hrs by LC-MS/MS analysis; type: ADME, organism-based; conditions: in vivo
MDA-MB-436 [30] = experiment: Anticancer activity against human MDA-MB-436 cells harboring BRCA mutant xenografted in SCID/nude mouse assessed as tumor growth regression at 50 mg/kg, po bid and measured up to 5 weeks post-drug administration; type: functional; conditions: MDA-MB-436, po, 840 h, time weeks <=5
[31] = Toxicity in SCID/nude mouse xenografted with human MDA-MB-436 cells harboring BRCA mutant assessed as body weight loss at 50 mg/kg, po bid; type: organism-based; conditions: in vivo
HEK293 [32] = experiment: Cytotoxicity against HEK293 cells assessed as inhibition of cell viability; type: cell-based; conditions: human

T1 sequence (P09874 whole entry): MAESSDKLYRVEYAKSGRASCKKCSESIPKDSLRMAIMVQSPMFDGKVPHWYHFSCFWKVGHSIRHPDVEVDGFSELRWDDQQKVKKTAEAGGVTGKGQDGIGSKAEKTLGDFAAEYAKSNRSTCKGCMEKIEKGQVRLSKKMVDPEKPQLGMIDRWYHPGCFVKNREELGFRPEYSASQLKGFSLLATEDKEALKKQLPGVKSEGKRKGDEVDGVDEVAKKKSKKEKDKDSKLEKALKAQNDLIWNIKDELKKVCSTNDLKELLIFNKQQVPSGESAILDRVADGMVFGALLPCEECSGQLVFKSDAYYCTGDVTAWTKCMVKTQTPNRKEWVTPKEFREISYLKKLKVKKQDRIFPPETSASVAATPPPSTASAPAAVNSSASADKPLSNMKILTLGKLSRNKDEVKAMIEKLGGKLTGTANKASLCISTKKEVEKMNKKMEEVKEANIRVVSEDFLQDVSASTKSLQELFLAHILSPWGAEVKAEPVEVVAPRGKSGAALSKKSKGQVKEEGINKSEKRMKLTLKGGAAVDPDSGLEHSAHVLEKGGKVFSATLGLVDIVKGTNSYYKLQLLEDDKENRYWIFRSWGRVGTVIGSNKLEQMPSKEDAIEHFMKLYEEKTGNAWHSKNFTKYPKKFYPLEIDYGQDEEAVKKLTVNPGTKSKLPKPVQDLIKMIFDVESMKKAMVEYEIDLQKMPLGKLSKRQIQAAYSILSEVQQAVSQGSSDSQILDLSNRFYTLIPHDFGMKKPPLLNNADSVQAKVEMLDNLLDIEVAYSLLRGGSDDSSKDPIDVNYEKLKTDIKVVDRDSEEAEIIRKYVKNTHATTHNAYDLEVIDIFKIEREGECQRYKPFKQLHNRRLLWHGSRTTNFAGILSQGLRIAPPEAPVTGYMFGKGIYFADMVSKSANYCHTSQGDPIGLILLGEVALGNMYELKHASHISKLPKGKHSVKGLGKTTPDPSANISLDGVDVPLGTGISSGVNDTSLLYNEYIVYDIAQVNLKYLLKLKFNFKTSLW
Sequence of Poly [ADP-ribose] polymerase 2 (Q9UGN5 whole entry, the tested form may be a part): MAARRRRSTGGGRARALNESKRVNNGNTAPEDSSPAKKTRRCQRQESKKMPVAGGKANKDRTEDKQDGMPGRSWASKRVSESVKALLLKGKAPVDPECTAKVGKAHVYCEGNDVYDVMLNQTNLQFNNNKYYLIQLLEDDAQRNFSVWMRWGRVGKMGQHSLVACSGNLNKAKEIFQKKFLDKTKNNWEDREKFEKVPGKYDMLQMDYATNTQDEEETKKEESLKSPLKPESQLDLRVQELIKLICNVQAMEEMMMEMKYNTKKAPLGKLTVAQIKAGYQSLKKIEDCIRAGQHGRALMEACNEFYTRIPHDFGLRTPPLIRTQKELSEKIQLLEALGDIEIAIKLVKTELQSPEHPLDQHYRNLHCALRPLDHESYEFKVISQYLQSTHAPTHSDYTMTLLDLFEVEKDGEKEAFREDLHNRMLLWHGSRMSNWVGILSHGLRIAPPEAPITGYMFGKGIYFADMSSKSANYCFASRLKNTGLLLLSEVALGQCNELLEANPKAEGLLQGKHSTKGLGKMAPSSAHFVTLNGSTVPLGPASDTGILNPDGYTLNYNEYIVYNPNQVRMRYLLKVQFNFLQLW

SMILES | inhibition [13] | pIC50 [19] | pIC50 [22] | pIC50 (MDA-MB-436 [15]) | pIC50 (MDA-MB-436 [24]) | also measured
CNCc1ccc(-c2[nH]c3cc(F)cc4c3c2CCNC4=O)cc1 [RUCAPARIB] | – | – | – | – | – | inhibition in vivo at 3 mg/kg (MDA-MB-436 [14]): 95%; inhibition in vivo at 3 mg/kg (SK-ES1): 20.6%; inhibition in vivo at 3 mg/kg (CAPAN-1): 46%
N#Cc1ccc(N2CCN([C@H]3C=C(c4cc5c(N)cc(F)cc5c(=O)[nH]4)CC3)CC2)cc1 | 92% | 8.89 | 9.00 | 11.80 | 10.14 | bioavailability [16]: 59%; AUC(0-t) at 24 h [17]: 18 µM·h; Cmax [18]: 11 µM; Tmax [20]: 15 min; clearance [21]: 0.132 L/h/kg; Activity (HEK293 [10]): 65%; Activity (MCF7): 36%; Tmax [23]: 4.8 min; Vd [25]: 0.4 L/kg; AUC(0-t) at 24 h [26]: 106 µM·h; inhibition in vivo at 1.5 mg/kg (MDA-MB-436 [27]): 94%; Cmax [28]: 19 µM; half-life [29]: 132 min
N#Cc1ccc(N2CCN([C@@H]3C=C(c4cc5c(N)cc(F)cc5c(=O)[nH]4)CC3)CC2)cc1 | 40% | 6.70 | 8.30 | – | – | –
N#Cc1ccc(N2CCN([C@@H]3C=C(c4cc5c(N)cccc5c(=O)[nH]4)CC3)CC2)cc1 | 83% | 6.78 | 8.60 | – | – | –
N#Cc1ccc(N2CCN([C@@H]3C=C(c4cc5c(N)cc(F)cc5c(=O)[nH]4)CC3)CC2)c(F)c1 | – | 7.24 | 8.25 | – | – | –
N#Cc1ccc(N2CCN([C@H]3C=C(c4cc5ncccc5c(=O)[nH]4)CC3)CC2)nc1 | 92% | 7.78 | 9.00 | 10.30 | 8.96 | –
N#Cc1ccc(N2CCN(CCCc3cc4c(N)cccc4c(=O)[nH]3)CC2)cc1 | 93% | 8.14 | 9.22 | 12.00 | 10.70 | –
N#Cc1ccc(N2CCN([C@H]3C=C(c4cc5c(N)cc(F)cc5c(=O)[nH]4)CC3)CC2)c(F)c1 | 89% | 8.59 | 9.05 | 10.30 | 10.22 | –
N#Cc1ccc(N2CCN([C@H]3C=C(c4cc5c(N)cccc5c(=O)[nH]4)CC3)CC2)cc1 | 92% | 8.82 | 9.22 | 11.30 | 9.96 | –
N#Cc1ccc(N2CCN([C@H]3C=C(c4cc5ncc(F)cc5c(=O)[nH]4)CC3)CC2)cc1 | 91% | 7.57 | 9.05 | 11.15 | 9.77 | –
O=C(c1cc(Cc2n[nH]c(=O)c3ccccc23)ccc1F)N1CCN(C(=O)C2CC2)CC1 [OLAPARIB] | – | – | – | – | – | inhibition in vivo at 3 mg/kg (MDA-MB-436 [14]): 39%; inhibition in vivo at 3 mg/kg (SK-ES1): 39.5%; inhibition in vivo at 50 mg/kg (MDA-MB-436 [30]): 40%; Activity [31]: 10%; inhibition in vivo at 3 mg/kg (CAPAN-1): 49%

Second part, led by results:

inhibition [13] | pIC50 [19] | pIC50 [22] | SMILES | pIC50 (MDA-MB-436 [15]) | pIC50 (MDA-MB-436 [24]) | also measured
91% | – | – | Cn1ncnc1[C@H]1c2n[nH]c(=O)c3cc(F)cc(c23)N[C@@H]1c1ccc(F)cc1 [TALAZOPARIB] | – | – | Activity [1]: Toxic; Activity [2]: Toxic; Activity [3]: Non-Toxic; Activity [4]: Toxic; Activity [5]: 10%; Activity [6]: Toxic; Activity [7]: Non-Toxic; Activity [8]: Non-Toxic; inhibition in vivo at 0.15 mg/kg (MDA-MB-436 [9]): 65%; Activity (HEK293 [10]): 95%; Activity [11]: Toxic; Activity (MCF7): 98%; Activity [12]: Toxic
68% | 8.02 | 9.05 | Nc1cc(F)cc2c(=O)[nH]c(CCCN3CCN(c4ccc(F)cc4)CC3)cc12 | 10.30 | 8.95 | –
62% | 7.97 | 9.10 | CNC(=O)c1ccc(N2CCN(CCCc3cc4c(N)cc(F)cc4c(=O)[nH]3)CC2)cc1 | 11.00 | 9.46 | –
54% | 8.34 | 9.40 | NC(=O)c1ccc(N2CCN(CCCc3cc4c(N)cc(F)cc4c(=O)[nH]3)CC2)cc1 | 9.48 | 8.83 | –
86% | 8.41 | 9.22 | N#Cc1ccc(N2CCN(CCCc3cc4c(N)cc(F)cc4c(=O)[nH]3)CC2)cc1 | 12.22 | 10.82 | bioavailability [16]: 8%; Activity (HEK293 [32]): Non-Toxic; AUC(0-t) at 24 h [17]: 2.4 µM·h; Cmax [18]: 3.7 µM; Tmax [20]: 15 min; clearance [21]: 1.02 L/h/kg; Activity (MCF7): 23%; Tmax [23]: 4.8 min; Vd [25]: 0.8 L/kg; AUC(0-t) at 24 h [26]: 1.9 µM·h; inhibition in vivo at 1.5 mg/kg (MDA-MB-436 [27]): 29%; Cmax [28]: 1.5 µM; half-life [29]: 66 min

Reference: ChEMBL document CHEMBL4673259, “Discovery of isoquinolinone and naphthyridinone-based inhibitors of poly(ADP-ribose) polymerase-1 (PARP1) as anticancer agents: Structure activity relationship and preclinical characterization” (Bioorg Med Chem, 2020)
